Assay: xn = mol fraction of the nth substance listed
Details: 101.33 kPa, Liquid

CCCCCl [1-chlorobutane] + CC(C)(C)O
Details | mass density [kg/m3] | viscosity [mPa·s]
298.15 K, x2 = 0.0966 | – | 0.442
298.15 K, x2 = 0.2 | – | 0.476
298.15 K, x2 = 0.2904 | – | 0.517
298.15 K, x2 = 0.3901 | – | 0.577
298.15 K, x2 = 0.4897 | – | 0.662
298.15 K, x2 = 0.5956 | – | 0.799
298.15 K, x2 = 0.6919 | – | 1
298.15 K, x2 = 0.8008 | – | 1.425
298.15 K, x2 = 0.8889 | – | 2.112
303.15 K, x2 = 0.0924 | 864.09 | –
303.15 K, x2 = 0.0966 | – | 0.419
303.15 K, x2 = 0.1915 | 853.49 | –
303.15 K, x2 = 0.2 | – | 0.449
303.15 K, x2 = 0.2758 | 844.75 | –
303.15 K, x2 = 0.2904 | – | 0.486
303.15 K, x2 = 0.38 | 834.23 | –
303.15 K, x2 = 0.3901 | – | 0.537
303.15 K, x2 = 0.481 | 824.02 | –
303.15 K, x2 = 0.4897 | – | 0.611
303.15 K, x2 = 0.5729 | 814.91 | –
303.15 K, x2 = 0.5956 | – | 0.727
303.15 K, x2 = 0.6749 | 804.89 | –
303.15 K, x2 = 0.6919 | – | 0.892
303.15 K, x2 = 0.7778 | 795.09 | –
303.15 K, x2 = 0.8008 | – | 1.232
303.15 K, x2 = 0.8889 | – | 1.752
303.15 K, x2 = 0.8938 | 784.46 | –
308.15 K, x2 = 0.0966 | – | 0.397
308.15 K, x2 = 0.0969 | 857.96 | –
308.15 K, x2 = 0.1912 | 847.87 | –
308.15 K, x2 = 0.2 | – | 0.423
308.15 K, x2 = 0.2786 | 838.9 | –
308.15 K, x2 = 0.2904 | – | 0.456
308.15 K, x2 = 0.3839 | 828.23 | –
308.15 K, x2 = 0.3901 | – | 0.502
308.15 K, x2 = 0.4811 | 818.5 | –
308.15 K, x2 = 0.4897 | – | 0.565
308.15 K, x2 = 0.5844 | 808.35 | –
308.15 K, x2 = 0.5956 | – | 0.664
308.15 K, x2 = 0.6849 | 798.55 | –
308.15 K, x2 = 0.6919 | – | 0.801
308.15 K, x2 = 0.7881 | 788.78 | –
308.15 K, x2 = 0.8008 | – | 1.081
308.15 K, x2 = 0.8889 | – | 1.474
308.15 K, x2 = 0.8957 | 779.05 | –
313.15 K, x2 = 0.093 | 852.6 | –
313.15 K, x2 = 0.0966 | – | 0.378
313.15 K, x2 = 0.1869 | 842.51 | –
313.15 K, x2 = 0.2 | – | 0.4
313.15 K, x2 = 0.2685 | 834.13 | –
313.15 K, x2 = 0.2904 | – | 0.428
313.15 K, x2 = 0.3778 | 823.11 | –
313.15 K, x2 = 0.3901 | – | 0.468
313.15 K, x2 = 0.4841 | 812.56 | –
313.15 K, x2 = 0.4897 | – | 0.525
313.15 K, x2 = 0.5777 | 803.43 | –
313.15 K, x2 = 0.5956 | – | 0.608
313.15 K, x2 = 0.6796 | 793.58 | –
313.15 K, x2 = 0.6919 | – | 0.724
313.15 K, x2 = 0.7766 | 784.47 | –
313.15 K, x2 = 0.8008 | – | 0.947
313.15 K, x2 = 0.8889 | – | 1.255
313.15 K, x2 = 0.8972 | 773.57 | –
318.15 K, x2 = 0.0918 | 847.04 | –
318.15 K, x2 = 0.0966 | – | 0.359
318.15 K, x2 = 0.1839 | 837.08 | –
318.15 K, x2 = 0.2 | – | 0.38
318.15 K, x2 = 0.2674 | 828.47 | –
318.15 K, x2 = 0.2904 | – | 0.404
318.15 K, x2 = 0.3797 | 817.22 | –
318.15 K, x2 = 0.3901 | – | 0.439
318.15 K, x2 = 0.4809 | 807.29 | –
318.15 K, x2 = 0.4897 | – | 0.488
318.15 K, x2 = 0.5799 | 797.62 | –
318.15 K, x2 = 0.5956 | – | 0.56
318.15 K, x2 = 0.678 | 788.38 | –
318.15 K, x2 = 0.6919 | – | 0.658
318.15 K, x2 = 0.7833 | 778.42 | –
318.15 K, x2 = 0.8008 | – | 0.841
318.15 K, x2 = 0.8889 | – | 1.083
318.15 K, x2 = 0.8905 | 768.84 | –

From the NIST ThermoML archive (doi:10.1021/je0496140)
